The values below come from PubChem BioAssay (NCI).

Common to all, as to test: growth of human tumour cells (NCI), 48 h
Test [1] concerns T-47D breast.
For test [2], the system named is EKVX NSCLC.
The subject of test [3] is CAKI-1 renal.
Test [4] has as its system MCF7 breast.
Test [5] relates to SK-MEL-2 melanoma.
Test [6] relates to M14 melanoma.
Test [7] relates to K-562 leukemia.
In test [8] the test system is SF-539 CNS.
Test [9] has as its system UO-31 renal.
For test [10], the system named is A549 NSCLC.

Molecules are shown by their SMILES.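 Grown in 96-well plates, cells were treated for 48 hours with each compound at five concentrations. Insufficient inhibition: endpoint recorded as highest concentration tested. Here, GI50 denotes the concentration required for 50% inhibition of growth. TGI marks complete inhibition of growth.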

For `COc1ccc(C2=Nc3cc(C)c(C)cc3NC(c3ccccc3)C2)cc1` (stereo not drawn), the TGI in [1], in [2], in test [3], in [4], in test [5] and in [6] was above 100 µM in each case. Also, the TGI in [7], in [8], in [9] and in [10] was above 100 µM in each case.
In the case of `COc1ccc2c(c1)NC1=C(C(=O)OC1)C2c1cc(OC)c2c(c1)OCO2` (stereo not drawn), the GI50 was above 100 µM in test [1]; 0.0502 µM in test [3]; below 0.0158 µM in [4]; 0.0299 µM in [5]; 0.0132 µM in test [6]; below 0.0178 µM in test [8]. In addition, the GI50 in [10] is 0.0229 µM. In addition, the TGI in test [1] is above 100 µM; in test [2] it was above 100 µM; in [3], above 100 µM; in [4] it was above 100 µM; in [5], above 100 µM; in test [6], 0.0585 µM. The TGI is above 100 µM in [7], above 83.2 µM in [8], above 100 µM in test [9] and above 100 µM in [10].
Turning to `COc1ccc(CCN2CC=Cn3c2nc2ccccc2c3=O)cc1`, the GI50 in [1] was 16 µM; in test [2] it was 0.185 µM; in test [3], 0.0576 µM; in [4] it was 0.0307 µM; in [5] it was 0.0334 µM; in [7], 0.0203 µM. Besides, the GI50 was 0.0209 µM in [8], 0.0683 µM in test [9] and 0.038 µM in [10]. Further, the TGI in [1] was above 100 µM; in [2], above 100 µM; in test [3] it was above 100 µM; in test [4], above 43 µM; in test [5] it was 32.9 µM; in test [7] it was above 100 µM. The TGI in [8] was 0.0627 µM; in [9], above 100 µM; in test [10], above 49.1 µM.
Turning to `N#C/C(=C\c1ccsc1)c1nc2ccccc2o1`, the GI50 was 44.7 µM in test [1]; 67.5 µM in [2]; 22.3 µM in test [3]; 17.8 µM in [4]; 98.5 µM in [5]; above 100 µM in test [6]. The GI50 in test [7] was above 100 µM; in [8] it was 38.7 µM; in [9], 46.4 µM; in test [10], above 100 µM. For the same molecule, the TGI in [1], in test [2], in test [3], in test [4], in test [5] and in test [6] was above 100 µM throughout. In addition, the TGI in test [7], in test [8], in test [9] and in test [10] was above 100 µM throughout.
For `C=C1C(O)C2C(=C(CC)C13CC3)C(=O)C(C)(C)C2OC` (stereo not drawn), the GI50 in test [1] was above 100 µM; in test [2], 82.6 µM; in [3] it was 76.5 µM; in test [4] it was 42.4 µM; in [5], above 100 µM; in test [6] it was 59.4 µM. In addition, the GI50 in [7] was 31.3 µM; in test [8] it was 54.4 µM; in test [9] it was 81.5 µM; in [10] it was 44.9 µM. Besides, the TGI in test [1], in test [2], in test [3], in test [4], in test [5] and in [6] was above 100 µM in each case. In addition, the TGI in [7], in [8], in test [9] and in test [10] was above 100 µM throughout.
As for `COc1cccc(N2C(=O)C3c4[nH]c5ccccc5c4C4CCCC4C3C2=O)c1` (stereo not drawn), the TGI in [1], in [2], in test [3], in [4], in test [5] and in [6] was above 10 µM throughout. The TGI in test [7], in test [8] and in test [10] was above 10 µM in each case.
In the case of `COc1ccc2c(c1)c(CC(=O)[Se]C)c(C)n2C(=O)c1ccc(Cl)cc1`, the TGI in test [1] is above 1 µM; in [2], above 0.459 µM; in test [3], above 0.515 µM; in test [4], above 1 µM; in test [5], above 0.794 µM; in test [6], above 0.34 µM. For the same molecule, the TGI in test [7] is above 1 µM; in [8] it was above 0.526 µM; in test [9], above 0.523 µM; in [10], above 0.603 µM. Further, the GI50 in [2] is above 0.229 µM; in [3], above 0.266 µM; in test [4] it was above 0.35 µM; in test [5], above 0.436 µM; in [7], above 0.583 µM; in test [8], above 0.238 µM. This molecule also returned a GI50 in [10] above 0.283 µM.
As for `NCCCC[C@@H]1NC(=O)[C@H]2CCCN2C(=O)[C@H](Cc2ccccc2)CNC(=O)[C@H](Cc2ccccc2)NC1=O`, the GI50 in test [1], in test [2], in test [3], in [4], in test [5] and in test [6] was above 37.5 µM in each case. The GI50 in test [7] was above 17.9 µM; in [8], above 37.5 µM; in [9] it was above 37.5 µM; in test [10], above 37.5 µM. The TGI in test [1], in [2], in test [3], in [4], in [5] and in test [6] was above 37.5 µM each time. In addition, the TGI in test [7], in [8], in [9] and in test [10] was above 37.5 µM in each case.
On to `CC(C)(C)C(=O)OCC1C(=O)OCC1C(=O)N1Cc2cc3ccccc3nc2C1` (stereo not drawn), for which the TGI in test [1] was found to be 7.63 µM; in test [2], 22.4 µM; in test [3], 3.87 µM; in test [4], 14.6 µM; in test [5], 22.1 µM; in test [6], 8.08 µM. For the same molecule, the TGI came out at 2.64 µM in [7], 12 µM in test [8], 7.99 µM in test [9] and 30.8 µM in test [10].
As for `Cc1cc2c(C(C)C)c(O)c(O)cc2c(O)c1-c1c(C)cc2c(C(C)C)c(O)c(O)cc2c1O`, the GI50 was 19.1 µM in test [1]; 20.8 µM in test [2]; 19.2 µM in test [3]; 11.4 µM in test [4]; 17.7 µM in [5]; 12.3 µM in test [6]. Also, the GI50 in [7] is 5.72 µM; in test [8], 19.9 µM; in [9] it was 14.9 µM; in [10] it was 17.2 µM. Moreover, the TGI in [1] came to 45.7 µM; in test [2], 68.6 µM; in [3], 82.6 µM; in test [4], 29.5 µM; in test [5], 33.9 µM; in test [6], 27.6 µM. In addition, the TGI in [7] stood at 27.7 µM; in test [8], 43.5 µM; in [9], 29.1 µM; in [10], 47.2 µM.
On to `Cc1c(C(=O)Nc2ccccc2)sc2ncn(Cc3cccc(Cl)c3)c(=O)c12`, for which the GI50 is 42.9 µM in [1]; 30.2 µM in test [2]; 15.4 µM in [3]; 10.6 µM in [4]; 49.2 µM in test [5]; 43.6 µM in test [6]. Also, the GI50 in [7] was 4.87 µM; in test [8] it was 22.4 µM; in test [9], 13 µM; in [10], 29.6 µM. The TGI in test [1] is above 100 µM; in test [2], above 100 µM; in [3], 84.5 µM; in test [4] it was above 100 µM; in [5], above 100 µM; in [6], above 100 µM. The TGI in test [7] was above 100 µM; in [8], above 100 µM; in test [9], 39.7 µM; in test [10], 93.1 µM.
Take `Cn1ncnc1[C@H]1c2n[nH]c(=O)c3cc(F)cc(c23)N[C@@H]1c1ccc(F)cc1`: the GI50 in [1] was above 100 µM; in [3], 5.89 µM; in test [4], 0.701 µM; in [5] it was above 100 µM; in [6], 4.19 µM; in [7] it was above 100 µM. The values for the GI50 in test [9] and in test [10] were 6.5 µM and 6.96 µM, respectively. In addition, the TGI in test [1], in test [3], in test [4], in test [5], in test [6] and in test [7] was above 100 µM in each case. Also, the TGI in [8], in test [9] and in test [10] was above 100 µM each time.
With `COc1cc(C(=O)c2c(-c3ccccc3)oc3c(OC)cccc23)cc(OC)c1OC`, the GI50 in test [1] was 31.8 µM; in test [2], 0.0674 µM; in test [3], 0.0474 µM; in test [4] it was 0.153 µM; in [5], 2.4 µM; in test [7], 0.0368 µM. Further, the GI50 in test [8] is 0.0293 µM; in [9], 0.119 µM; in [10] it was 0.0736 µM. The TGI is above 100 µM in test [1]; above 100 µM in test [2]; 21.9 µM in test [3]; above 100 µM in test [4]; above 84.5 µM in test [5]; above 100 µM in test [7]. For the same molecule, the TGI in test [8] is 0.173 µM; in test [9], above 100 µM; in test [10], above 100 µM.
As to `CC1(C)C2CCC13C(=O)C1OC3(C2)C2C(=O)c3ccccc3C(=O)C12` (stereo not drawn), the GI50 in test [1] is above 100 µM; in test [3], 21.9 µM; in [4] it was above 100 µM; in test [5], above 100 µM; in test [6] it was above 100 µM; in test [7], above 100 µM. Moreover, the GI50 in [8], in test [9] and in test [10] was above 100 µM each time. For the same molecule, the TGI in [1] was above 100 µM; in test [3] it was 72.8 µM; in test [4], above 100 µM; in [5], above 100 µM; in [6], above 100 µM; in [7], above 100 µM. Besides, the TGI in test [8], in test [9] and in [10] was above 100 µM each time.
In the case of `CN(C)CCN1C(=O)c2c(c3c4ccccc4n4c3c3c2c2ccccc2n3C2CC(O)C(O)C4(C)O2)C1=O` (stereo not drawn), the GI50 in test [1] is 2.39 µM; in test [2] it was 2.24 µM; in test [3], 1.98 µM; in [4] it was 0.58 µM; in test [5], 2.97 µM; in test [6], 1.71 µM. Besides, the GI50 was 0.84 µM in [7], 1.71 µM in test [9] and 0.643 µM in [10]. In addition, the TGI was determined as 12.1 µM in [1]; 13 µM in [2]; 12 µM in test [3]; 7.44 µM in [4]; 9.2 µM in [5]; 7.47 µM in test [6]. The TGI in [7] worked out at 7.54 µM; in test [9], 13.9 µM; in test [10] it was 7.4 µM.
Consider `C=C(C(N)=O)c1ccc([N+](=O)[O-])o1`, for which the TGI in test [1] was 48 µM; in [2], 42 µM; in [3], 7.27 µM; in test [4], 19.8 µM; in [5] it was 22.5 µM; in test [6], 8.65 µM. Further, the values for the TGI in test [7], in test [8] and in test [10] were 26 µM, 27.2 µM and 40.3 µM, respectively.
For `COc1cc2c(cc1OC)[C@H](C)N1CCc3cc(OC)c(OC)cc3[C@@H]1C2`, the TGI in test [1], in [2], in test [3], in test [4], in [5] and in test [7] was above 100 µM each time. Besides, the TGI in [8], in test [9] and in [10] was above 100 µM in each case.
For the molecule `O=C(Nc1cccc(-n2cc(-c3ccncc3)c(-c3ccc(Cl)c(O)c3)n2)c1)Nc1cc(C(F)(F)F)cc(C(F)(F)F)c1`, the GI50 in test [1] was 1.55 µM; in [3] it was 0.867 µM; in [4] it was 0.666 µM; in test [5] it was 0.999 µM; in [6] it was 0.692 µM; in test [7], 0.52 µM. The GI50 in test [8] was 0.777 µM; in [9], 0.676 µM; in test [10], 0.313 µM. The TGI is 8.93 µM in test [1]; 2.88 µM in [3]; 4.62 µM in test [4]; 2.18 µM in test [5]; 1.9 µM in test [6]; 2.98 µM in test [7]. Besides, the TGI in test [8] worked out at 1.53 µM; in test [9] it was 1.77 µM; in test [10] it was 1.38 µM.
